{
  "source": "patent US20090232757A1",
  "about": "“Use of gamma-amino butyric acid as a depigmenting agent” (priority 2006, published 2009)",
  "key": {"[1]": {"system": "normal human melanocytes", "details": "for Dose from which a cytotoxic effect is detected (less than 80% of the viable cells still present) / Percentage of viability (vs controls), Mean: human, 72 h", "method": "The determination is performed with normal human melanocytes obtained from a young patient. For the performance of the tests, the cells have been cultured until obtention of confluent mono-layers.\nAs a comparison one has prepared a 10% solution of kojic acid and a 30% solution of lactic acid (composition E).\nThe tested preparations have been then directly diluted in the incubation medium for the melanocytes.\nAt the end of the incubation period, the viability of the cells has been evaluated using a spectrophotometric method for dosing the activity of the intracellular phosphatases. According to the method of Yan T. et al. (Anal. Biochem. 24 (1996) 103-108), one doses the p-nitrophenol resulting from the conversion of the phosphate of p-nitrophenol by means of the intracellular phophatases of the viable cells present in the wall of culture."}, "[2]": {"system": "normal human melanocytes", "assay": "Melanomodulating effect: intracellular melanine/proteins ratio in normal human melanocytes in monolayer culture (72 h)", "type": "cell-based", "from_the_text": "The search of a “melanomodulating” effect has been performed in two steps: • melanomodulating effect of the active ingredients taken separately at predetermined concentrations in the cytotoxicity tests. • Melanomodulating effect of the complex, i.e. GABA in admixture with the other ingredients, white mulberry, lemon and lactic acid.\nThese tests have been performed on a model of normal human melanocytes cultured on monolayer cultures.\nGamma aminobutyric acid, lemon extract and white mulberry extract have been solubilized and directly diluted in the culture medium.\nIn this method the ratio melanine/proteins is determined as a percentage of the controls.\nThe effect of a complex containing the active ingredients A (gamma aminobutyric acid), C, D and lactic acid (composition E) has also been evaluated as a comparating element, on the synthesis of melanine in a model of normal human melanocytes cultured in a monolayer culture.\nThe tested compositions have therafter been directly diluted in the incubation medium for the melanocytes at a concentration of 0.1, 0.5 and 1% (v/v).\nNormal human melanocytes have been utilized stemming from a young patient. They have been cultured in a monolayer culture until of a confluence of 80%.\n1—Dosage of Melanine: • at the end of the incubation period, the intra cellular content of melanine has been quantified after cellular lysis, using a spectrophotometric measure at 405 nm.\n2—Dosage of the Proteins: • at the end of incubation period the proteins contained in the cellular lysates have been determined using a spectrocolometric method based on Coomassie Blue according to the method of Bradford M. (Anal. Biochem. 72 (1976) 248-254)."}, "[3]": {"biological_target": "T1, tyrosinase (Homo sapiens, UniProt P14679)", "T1 construct": "cultures of normal human melanocytes; endogenous in cells; host or cells: normal human melanocytes", "T1 sequence (P14679 19-529)": "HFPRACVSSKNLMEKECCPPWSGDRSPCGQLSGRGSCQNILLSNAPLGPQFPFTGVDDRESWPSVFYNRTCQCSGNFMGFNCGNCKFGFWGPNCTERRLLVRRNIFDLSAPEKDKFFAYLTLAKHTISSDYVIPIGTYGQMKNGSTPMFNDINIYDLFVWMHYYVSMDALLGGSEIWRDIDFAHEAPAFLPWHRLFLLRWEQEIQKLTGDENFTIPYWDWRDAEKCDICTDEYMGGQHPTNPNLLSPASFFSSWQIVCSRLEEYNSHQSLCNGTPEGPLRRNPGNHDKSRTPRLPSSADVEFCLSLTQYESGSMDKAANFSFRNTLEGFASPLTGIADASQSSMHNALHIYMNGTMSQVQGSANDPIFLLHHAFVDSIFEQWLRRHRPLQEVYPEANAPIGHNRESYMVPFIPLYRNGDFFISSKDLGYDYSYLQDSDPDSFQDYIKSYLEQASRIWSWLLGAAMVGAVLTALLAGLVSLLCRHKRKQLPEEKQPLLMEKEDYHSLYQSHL", "assay": "Inhibiting activity on tyrosinase in cultures of normal human melanocytes", "type": "cell-based", "from_the_text": "Gamma aminobutyric acid as well as its salts and derivatives used in such compositions has been studied on isolated cells and namely on cultures of normal human melanocytes. […] The obtained results are a function of the doses what is in favour of a specific effect of gamma-aminobutyric acid on this kind of parameters."}},
  "note": "Where “and” joins values, the source holds several entries; their conditions need not be identical. Identical values can stand only once. Like-named read-outs stand apart in the source and are kept apart here. Marks after values point to notes of the source that are not given here.",
  "data": [
    {"smiles": "NCCCC(=O)O", "note": "[A, gamma aminobutyric acid]", "values": [
      {"measurement": "Dose from which a cytotoxic effect is detected (less than 80% of the viable cells still present)", "setting": "[1]", "value": 0.5, "unit": "%"},
      {"measurement": "Concentration from which results on ratio melanine/proteins are statistically significant", "setting": "[2]; Step 1, 72 h", "value": 0.1, "unit": "%"},
      {"measurement": "Ratio Melanine Proteins (% of the controls), Mean", "setting": "[2]; Step 1, A 0.001% (w/v), 72 h, mean", "value": "101.9 % of the controls"},
      {"measurement": "Ratio Melanine Proteins (% of the controls)", "setting": "[2]; Step 1, A 0.001% (w/v), 72 h, single values", "value": "98.8 % of the controls and 108.6 % of the controls and 98.3 % of the controls"},
      {"measurement": "Ratio Melanine Proteins (% of the controls), Mean", "setting": "[2]; Step 1, A 0.01% (w/v), 72 h, mean", "value": "96.6 % of the controls"},
      {"measurement": "Ratio Melanine Proteins (% of the controls)", "setting": "[2]; Step 1, A 0.01% (w/v), 72 h, single values", "value": "87.0 % of the controls and 101.8 % of the controls and 101.1 % of the controls"},
      {"measurement": "Ratio Melanine Proteins (% of the controls), Mean", "setting": "[2]; Step 1, A 0.1% (w/v), 72 h, mean", "value": "74.0* % of the controls"},
      {"measurement": "Ratio Melanine Proteins (% of the controls)", "setting": "[2]; Step 1, A 0.1% (w/v), 72 h, single values", "value": "74.3 % of the controls and 76.4 % of the controls and 74.2 % of the controls and 71.3 % of the controls"},
      {"measurement": "Intra cellular content of melanine in the cultured cells, result in words", "setting": "[2]; cultured normal human melanocytes", "value": "clear decrease"},
      {"measurement": "Inhibiting activity on tyrosinase, result in words", "setting": "[3]", "value": "inhibiting activity on tyrosinase"}
    ]},
    {"smiles": "CC(O)C(=O)O", "note": "(stereo not shown) [E, lactic acid]", "values": [
      {"measurement": "Cytotoxicity, result in words", "setting": "[1]", "value": "clearly cytotoxic"},
      {"measurement": "Dose from which a cytotoxic effect is detected (less than 80% of the viable cells still present)", "setting": "[1]", "value": 0.03, "unit": "%"},
      {"measurement": "Percentage of viability (vs controls), Mean", "setting": "[1]; 0.003 % (v/v)", "value": 80.8, "unit": "%"},
      {"measurement": "Percentage of viability (vs controls), Mean", "setting": "[1]; 0.03 % (v/v)", "value": 73.2, "unit": "%"},
      {"measurement": "Percentage of viability (vs controls), Mean", "setting": "[1]; 0.075 % (v/v)", "value": 70.8, "unit": "%"},
      {"measurement": "Percentage of viability (vs controls), Mean", "setting": "[1]; 0.15 % (v/v)", "value": 65.9, "unit": "%"},
      {"measurement": "Percentage of viability (vs controls), Mean", "setting": "[1]; 0.3 % (v/v)", "value": 6.2, "unit": "%"},
      {"measurement": "Percentage of viability (vs controls), Mean", "setting": "[1]; 0.75 % (v/v)", "value": 2.4, "unit": "%"},
      {"measurement": "Percentage of viability (vs controls), Mean", "setting": "[1]; 1.5 % (v/v)", "value": 0.2, "unit": "%"},
      {"measurement": "Percentage of viability (vs controls), Mean", "setting": "[1]; 3 % (v/v)", "value": 0.8, "unit": "%"}
    ]},
    {"smiles": "O=c1cc(CO)occ1O", "note": "[Kojic Acid, Kojic acid]", "values": [
      {"measurement": "Ratio melanine/Proteins (% of the controls), Mean", "setting": "[2]; Step 1, Kojic Acid 250 μM in DMSO, 72 h, mean", "value": "77.40* % of the controls"},
      {"measurement": "% of the controls (mean ratio melanine/proteins, controls = 100)", "setting": "[2]; Step 2, Kojic Acid 250 μM, 72 h", "value": "84.5 % of the controls"},
      {"measurement": "Ratio melanine/Proteins (% of the controls), Mean", "setting": "[2]; Step 2, Kojic Acid 250 μM, 72 h, mean (controls mean 119.2)", "value": "100.8* % of the controls"},
      {"measurement": "Ratio melanine/Proteins (% of the controls)", "setting": "[2]; Step 2, Kojic Acid 250 μM, 72 h, single values", "value": "106.3 % of the controls and 93.2 % of the controls and 102.8 % of the controls and 94.1 % of the controls and 97.9 % of the controls"},
      {"measurement": "Decrease of the intra cellular content of melanine in the culture cells", "setting": "[2]; Step 2, Kojic acid at 250 μM, 72 h, p<0.05", "value": 15.5, "unit": "%"}
    ]}
  ]
}
